Results as given in ChEMBL document CHEMBL1150232, “Microspinosamide, a new HIV-inhibitory cyclic depsipeptide from the marine sponge Sidonops microspinosa” (J Nat Prod, 2001).
Converted amounts (≈) assume the structure as drawn.

Experiments:
CEM-SS = assay: Cytotoxicity against human CEM-SS cells; type: cell-based
[1] = system: Human immunodeficiency virus 1; assay: Antiviral activity against HIV1 infected in human CEM-SS cells assessed as inhibition of virus-induced cytopathic effect by XTT assay; type: functional, organism-based; conditions: Human immunodeficiency virus 1, CEM-SS

For `CCC(C)(C)[C@H](NC(=O)[C@H](NC(=O)[C@@H]1CCCN1C(=O)C(NC(=O)[C@@H](C)NC=O)C(O)c1ccc(Br)cc1)C(C)(C)C)C(=O)N[C@H](Cc1c[nH]c2ccccc12)C(=O)N[C@@H](CCCNC(=N)N)C(=O)N[C@H](CS(=O)(=O)O)C(=O)N[C@@H]1C(=O)N(C)[C@@H](CCC(N)=O)C(=O)N[C@H](C(C)C)C(=O)N2CCC[C@H]2C(=O)N[C@H](CC(=O)O)C(=O)O[C@@H]1C` (some centres not stated) [MICROSPINOSAMIDE], the IC50 (CEM-SS) was 3 µg/mL (≈ 1.74 µM) and the EC50 [1] was 0.2 µg/mL (≈ 0.116 µM).
